Read-outs that look alike come from different tables or passages of the source.
How the values were obtained:
[1] = test system: DA-depleted DAT-KO (DDD) mice; assay: Akinesia test (forelimb steps in 30 s) in DDD mice; conditions: as E7; 1 h after second dose
[2] = test system: DA-depleted DAT-KO (DDD) mice; assay: Catalepsy test (horizontal bar) in DDD mice; conditions: for Catalepsy (sec) 2 h: as E4, 1 h after second dose
[3] = test system: DA-depleted DAT-KO (DDD) mice; assay: Grasping test of muscular rigidity in DDD mice; conditions: as E1; 1 h after second dose
[4] = test system: DA-depleted DAT-KO (DDD) mice; conditions: mouse, in vivo
[5] = test system: DAT-KO mice; assay: Neurotoxic regimen of (±)-MDMA, striatal tissue DA and 5-HT 7 d later; conditions: (±)-MDMA 4 injections of 20 mg/kg IP, every 2 h, DAT-KO mice n=7
[6] = test system: WT mice; assay: Neurotoxic regimen of (±)-MDMA; conditions: (±)-MDMA 4 injections of 20 mg/kg IP, every 2 h; WT mice n=7
[7] = test system: DA-depleted DAT-KO (DDD) mice; assay: Locomotor activity (forward locomotion, distance traveled) in DDD mice; conditions: for effect in tests of forward locomotion or akinesia and rigidity: NE- and 5-HT-related drugs, data not shown
[8] = test system: DAT-KO mice; assay: In vivo microdialysis of striatal extracellular DA; conditions: (+)-MDMA 100 mg/kg IP after αMT; in vivo microdialysis
Procedure: Neurochemical assessments. Striatal tissue contents of DA and frontal cortical tissue levels of NE were assessed using HPLC-EC (high performance liquid chromatography with electrochemical detection) as described. In vivo microdialysis measurements of striatal extracellular DA levels in freely moving mice were performed at least 24 h after implantation of a microdialysis probe as described previously. Dialysate samples were assayed for DA using HPLC-EC.

[9] = test system: DA-depleted DAT-KO (DDD) mice; assay: Ptosis score in DDD mice; conditions: cumulative dosing, scale 0-4, n=4
[10] = test system: 6-OH-DA-lesioned rats; conditions: 6-OH-DA-lesioned rats [85]; cited from earlier work
[11] = test system: haloperidol-treated rats; conditions: haloperidol-treated rats [84]; cited from earlier work
[12] = test system: MPTP-treated monkeys; conditions: MPTP-treated monkeys [64]; cited from earlier work
[13] = test system: DD mice; conditions: [76], cited from earlier work
[14] = target: TA1 receptor (Rattus norvegicus, UniProt Q923Y9); conditions: reported in [42]; cited from earlier work
TA1 receptor, sequence (Q923Y9 whole entry): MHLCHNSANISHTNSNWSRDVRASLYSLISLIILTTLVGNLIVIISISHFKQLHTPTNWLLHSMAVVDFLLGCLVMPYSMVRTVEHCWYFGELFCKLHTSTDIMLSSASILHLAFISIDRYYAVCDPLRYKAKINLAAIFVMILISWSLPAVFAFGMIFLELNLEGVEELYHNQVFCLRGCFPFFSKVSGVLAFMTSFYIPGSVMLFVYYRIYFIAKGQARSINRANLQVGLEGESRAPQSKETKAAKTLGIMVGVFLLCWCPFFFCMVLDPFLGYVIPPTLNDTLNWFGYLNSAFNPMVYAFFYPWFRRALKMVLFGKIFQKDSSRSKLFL

[15] = DDD mice, drug 1 h after αMT 250 mg/kg IP

CCNC(C)Cc1cccc(C(F)(F)F)c1 (racemic) [(±)-Fenfluramine]
Akinesia (steps) 2 h [1]: 32 ± 6 steps | Catalepsy (sec) 2 h [2]: 138 ± 28 s | Grasping test (sec) 2 h [3]: 8 ± 4 s

CC(N)Cc1ccc2c(c1)OCO2.Cl (racemic) [(±)-MDA, (±)-3,4-methylenedioxyamphetamine HCl]
manifestations of akinesia and rigidity [4]: effective in reducing manifestations of akinesia and rigidity

CNC(C)Cc1ccc2c(c1)OCO2.Cl (racemic) [(±)-MDMA, (±)-3,4-methylenedioxymethamphetamine HCl]
manifestations of akinesia and rigidity [4]: effective in reducing manifestations of akinesia and rigidity | striatal tissue 5-HT [5]: 0.40±0.02 ng/mg tissue | striatal tissue DA [5]: 0.58±0.04 ng/mg tissue | lethality [6]: lethality of all treated WT mice

CNC(C)Cc1ccc2c(c1)OCO2.Cl (single isomer, unassigned; (+)) [(+)-MDMA, (+)-3,4-methylenedioxymethamphetamine HCl]
forward locomotion (distance traveled) ([7]; mouse, in vivo): able to induce significant forward locomotion | potentiation of locomotor-stimulating effect of subthreshold L-DOPA/carbidopa ([7]; mouse, in vivo): potent synergistic effect | forward locomotion ([7]; mouse, in vivo, HCl): induced significant forward locomotion | striatal extracellular DA in DDD mice [8]: did not produce any detectable increase in striatal extracellular DA

CCNC(C)Cc1cccc(C(F)(F)F)c1 (single isomer, unassigned; (-)) [(−)-Fenfluramine]
Akinesia (steps) 2 h [1]: 28 ± 5 steps | Catalepsy (sec) 2 h [2]: 104 ± 31 s | Grasping test (sec) 2 h [3]: 4 ± 1 s

CC(N)Cc1ccc(Cl)cc1 (centres unmarked) [4-chloro-amphetamine]
manifestations of akinesia and rigidity [4]: effective in reducing manifestations of akinesia and rigidity

COc1ccc2[nH]cc(CCN(C)C)c2c1 [5-methoxy-N,N-dimethyltryptamine]
effect in tests of forward locomotion or akinesia and rigidity ([7]; DDD mice): none were effective

Cc1ccc2[nH]cc(CCN(C)C)c2c1 [5-methyl-N,N-dimethyltryptamine]
effect in tests of forward locomotion or akinesia and rigidity ([7]; DDD mice): none were effective

CCN[C@@H](C)Cc1cccc(C(F)(F)F)c1 [(+)-Fenfluramine]
Akinesia (steps) 2 h [1]: 21 ± 3 steps | Catalepsy (sec) 2 h [2]: 113 ± 23 s | Grasping test (sec) 2 h [3]: 9 ± 4 s

CC(NC(C)(C)C)C(=O)c1cccc(Cl)c1 (centres unmarked) [Bupropion]
Akinesia (steps) 2 h [1]: 29 ± 11 steps | Catalepsy (sec) 2 h [2]: 123 ± 28 s | Grasping test (sec) 2 h [3]: 16 ± 3 s

C[C@@H](N)Cc1ccccc1 [L-Amphetamine]
Akinesia (steps) 2 h [1]: 29 ± 5 steps | Catalepsy (sec) 2 h [2]: 99 ± 36 s | Grasping test (sec) 2 h [3]: 9 ± 3 s

N[C@@H](Cc1ccc(O)c(O)c1)C(=O)O [L-DOPA]
forward locomotion (distance traveled) [7, 15]: effectively restored locomotion

N[C@H](C(=O)O)[C@H](O)c1ccc(O)c(O)c1 [L-DOPS, L-threo-3,4-dihydroxyphenylserine]
effect in tests of forward locomotion or akinesia and rigidity ([7]; DDD mice): none were effective | ptosis score ([9]; 1 h after 100 mg/kg IP): 2.50±0.28 | ptosis score ([9]; 1 h after 200 mg/kg IP): 0 | ptosis score ([9]; 1 h after 400 mg/kg IP): 0

CNC(C)Cc1ccc2c(c1)OCO2 (centres unmarked) [MDMA, 3,4-methylenedioxymethamphetamine]
antiakinetic effects [10]: antiakinetic effects | anticataleptic effect [11]: potent anticataleptic effect | antiakinetic effects [12]: antiakinetic effects

C[C@]12N[C@H](Cc3ccccc31)c1ccccc12 [MK-801]
forward locomotion (distance traveled) [7, 15]: not effective | forward locomotion (distance traveled) ([7]; DDD mice, drug 1 h after αMT 250 mg/kg IP, listed as ME-801): did not result in a significant increase in forward locomotion | manifestations of akinesia and rigidity [4]: able to reduce rigidity

COc1ccc2[nH]cc(C3=CCNCC3)c2c1 [RU24969]
effect in tests of forward locomotion or akinesia and rigidity ([7]; DDD mice): none were effective

CN1CCc2cccc3c2[C@H]1Cc1ccc(O)c(O)c1-3 [apomorphine]
forward locomotion (distance traveled) [7, 15]: induced locomotion

NCCc1ccccc1 [beta-phenylethylamine]
forward locomotion (distance traveled) [7, 15]: did not induce forward locomotion | stereotypic reactions, such as headweaving and sniffing ([7]; DDD mice, high doses, with or without inhibition of MAO): did promote weak stereotypic reactions

Cn1c(=O)c2c(ncn2C)n(C)c1=O [caffeine]
forward locomotion (distance traveled) ([7]; mouse, in vivo): not effective

Clc1cccc(Cl)c1N=C1NCCN1 [clonidine]
effect in tests of forward locomotion or akinesia and rigidity ([7]; DDD mice): none were effective

C[C@H](N)Cc1ccccc1 [d-amphetamine]
locomotor activation in DD mice ([13]; 5 mg/kg, first treatment): induced potent locomotor activation | locomotor activation in DD mice ([13]; second treatment 2 h later, same dose): failed to induce locomotion | effects on akinesia and rigidity after pretreatment with D1 and D2 DA antagonists [4]: did not prevent the effects | manifestations of akinesia and rigidity [4]: effective in reducing manifestations of akinesia and rigidity

CN[C@@H](C)Cc1ccccc1 [d-methamphetamine]
manifestations of akinesia and rigidity [4]: effective in reducing manifestations of akinesia and rigidity

C#CCN(C)[C@H](C)Cc1ccccc1 [deprenyl]
potentiation of locomotor-stimulating effect of subthreshold L-DOPA/carbidopa ([7]; DDD mice, L-DOPA/carbidopa 10/10 mg/kg IP 15 min after drug, distance traveled for 2 h): failed to potentiate

CNCCCN1c2ccccc2CCc2ccccc21 [desipramine]
effect in tests of forward locomotion or akinesia and rigidity ([7]; DDD mice): none were effective

CNCCC(Oc1ccc(C(F)(F)F)cc1)c1ccccc1 (centres unmarked) [fluoxetine]
effect in tests of forward locomotion or akinesia and rigidity ([7]; DDD mice): none were effective

CN1Cc2c(N)cccc2C(c2ccccc2)C1 (centres unmarked) [nomifensine]
forward locomotion (distance traveled) [7, 15]: not effective | activity at TA1 receptor [14]: can also potently activate TA1 receptor | manifestations of akinesia and rigidity [4]: significantly reduced akinesia and rigidity | reversing catalepsy ([2]; DDD mice, cumulative treatment with 10 and 30 mg/kg IP): not effective

CCCN1C[C@H](CSC)C[C@@H]2c3cccc4[nH]cc(c34)C[C@H]21 [pergolide]
forward locomotion (distance traveled) [7, 15]: induced locomotion

CC(C)(N)Cc1ccccc1 [phentermine]
effects on akinesia and rigidity after pretreatment with D1 and D2 DA antagonists [4]: did not prevent the effects | manifestations of akinesia and rigidity [4]: effective in reducing manifestations of akinesia and rigidity

Reference: US8877802B2 (priority 2005, dated 2014)
